Laboratory results published in paper PMC5084075 (ACS Central Science, 2016).
Like-named read-outs stand apart in the source and are kept apart here.

Legend:
[1] = test system: T1, Plasmodium falciparum 3D7; assay: microbe, parasite or virus in culture; parameters: species or system P. falciparum blood stage culture; whole-cell asexual blood stage P. falciparum growth inhibition; conditions: Avery assay, read-out: 3D7 / IC50nM
T1 construct: 3D7
Protocol: (§1) To confirm the promise of the two starting points OSM-S-5 and -6, they were evaluated against 3D7 (drug-sensitive) and K1 (chloroquine resistant) strains of Plasmodium falciparum in a whole cell assay and against HEK-293 cells as a cytotoxicity marker (Table SB1, Biological Protocols; tables with the prefix “SB” may be found in the Supporting Information). Biological data may be browsed in a static data set taken as a snapshot for this paper (Data Sets S1 (Excel), S2 (SDF)), online in a database constructed through periodic batch uploads,[68] or in a “living database” to which may be added future data;[69] the latter may be visualized in a web browser[70] using an open source system that was recently deployed in the Wikipedia Chemical Structure Explorer,[71] or the data may be downloaded and visualized offline with proprietary (Figure S4)[72] or open source (Figure S5)[73] tools). The evaluation was performed in three different institutions using different assays and widely employed controls; controls are important to assess reproducibility and interassay variability[74] but also to minimize possible bias in evaluating compounds where there are pre-existing data from other researchers already in the public domain (Figure S6).[75]

[2] = test system: T2, Plasmodium falciparum K1 (chloroquine resistant); assay: microbe, parasite or virus in culture; parameters: species or system P. falciparum blood stage culture; whole-cell asexual blood stage P. falciparum growth inhibition
T2 construct: K1
Protocol: as §1

in vitro [3] = assay: in vitro; parameters: cytotoxicity counter-screen on HEK293 cells; conditions: human, hek293 cells; read-out: HEK 293 / IC50nM
Protocol: as §1

[4] = test system: Plasmodium falciparum late stage (IV-V) gametocytes; assay: microbe, parasite or virus in culture; parameters: species or system P. falciparum gametocytes; late stage (IV-V) gametocyte viability assay; conditions: 96 h, read-out: Late Stage Gametocyte (Avery)
Protocol: There are relatively few compounds effective against the gametocyte stage of the parasite,[12],[13] though such compounds are important in the prevention of disease transmission. Four compounds found to be active in the asexual assay were evaluated against late stage (IV–V) gametocytes. […] The discrepancy in the data arising from these two gametocyte assays may arise from the slightly different cell biology assayed (stage IV/V gametocytes vs stage V mature gametocytes) or most likely is a function of the relative compound exposure times (96 h vs 24 h).

in vitro [5] = assay: in vitro; parameters: HepG2 cytotoxicity beside the liver stage assay; conditions: human, hepg2 cells
Text: (§2) Of particular note is the striking potency of the nontoxic compound OSM-S-38, which may at this level provide protection from malaria to people who have been treated with the compound after an infectious bite.

[6] = test system: Plasmodium falciparum mature stage V gametocytes (DGFA); assay: microbe, parasite or virus in culture; parameters: dual gamete formation assay, inhibition of male and female gamete formation; conditions: 24 h
Protocol: The discrepancy in the data arising from these two gametocyte assays may arise from the slightly different cell biology assayed (stage IV/V gametocytes vs stage V mature gametocytes) or most likely is a function of the relative compound exposure times (96 h vs 24 h).

PfDHODH [7] = molecular target: T3, PfDHODH (Plasmodium falciparum, UniProt Q08210); assay: biochemical; parameters: PfDHODH enzyme inhibition IC50; conditions: read-out: DHODH
T3 sequence (Q08210 1-569): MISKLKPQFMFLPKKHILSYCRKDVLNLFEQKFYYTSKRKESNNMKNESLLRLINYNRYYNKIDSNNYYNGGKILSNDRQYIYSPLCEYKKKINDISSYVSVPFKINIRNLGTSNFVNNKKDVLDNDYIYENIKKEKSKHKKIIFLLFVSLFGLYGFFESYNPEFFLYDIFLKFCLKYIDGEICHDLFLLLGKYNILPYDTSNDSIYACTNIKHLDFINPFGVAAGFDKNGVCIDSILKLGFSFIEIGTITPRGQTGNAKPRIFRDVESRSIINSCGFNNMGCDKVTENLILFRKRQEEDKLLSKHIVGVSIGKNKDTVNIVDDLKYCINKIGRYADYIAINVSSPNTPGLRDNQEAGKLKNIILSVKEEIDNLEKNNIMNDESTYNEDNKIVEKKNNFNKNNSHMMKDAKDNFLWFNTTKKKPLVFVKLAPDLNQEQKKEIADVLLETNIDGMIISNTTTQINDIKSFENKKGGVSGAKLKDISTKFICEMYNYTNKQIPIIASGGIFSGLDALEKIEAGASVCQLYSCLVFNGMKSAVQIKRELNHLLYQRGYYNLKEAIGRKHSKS
Text: (§3) The potency of the near neighbor set led to an in silico target prediction study being performed on OSM-S-39 (Text S11). The method employed a naive Bayes statistical model identifying molecular structural features of small molecules with protein targets, using the ChEMBL database. Similar statistical approaches based on known activities of compounds have been successfully applied to identify targets of antitubercular compounds.[112]−[114] A total of 1,287 proteins were included for which at least 50 active compounds were known with activities <10 μM, with the other compounds in the database comprising the inactives. After the OSM compounds were scored against each target, the scores obtained were standardized by comparison with scores obtained through comparison with a random set of >10K compounds. The prediction list was culled for proteins relevant to malaria (3D7 proteome), and the analysis gave as the most likely candidate targets, in order of significance, carboxy-terminal domain RNA polymerase II polypeptide A small phosphatase 1 (Q8I3U9), dihydroorotate dehydrogenase (DHODH, Q08210), SUMO-activating enzyme subunit 2 (Q8I553) and 1 (Q8IHS2), and cyclin-dependent kinase 1 (P61075). […] A line of inquiry remaining open is the equivalent assays against the other targets identified in the in silico prediction.

PfDHODH [8] = molecular target: T3, PfDHODH; assay: biochemical; parameters: PfDHODH enzyme inhibition IC50; conditions: read-out: >50
PfDHODH [9] = molecular target: T3, PfDHODH; assay: biochemical; parameters: PfDHODH enzyme inhibition assay, IC50; conditions: read-out: DHODH
Text: as §3

[10] = test system: T4, Plasmodium falciparum Pfal (K1); assay: microbe, parasite or virus in culture; parameters: species or system erythrocytes; P. falciparum asexual blood-stage whole-cell growth inhibition, IC50; conditions: K1, Erythrocyte, lab named in column head
T4 construct: K1
Protocol: as §1

[11] = test system: T5, Plasmodium falciparum Pfal (3D7); assay: microbe, parasite or virus in culture; parameters: species or system erythrocytes; P. falciparum asexual blood-stage whole-cell growth inhibition, IC50; conditions: 3D7, Erythrocyte, lab named in column head
T5 construct: 3D7
Protocol: as §1

[12] = molecular target: T6, hERG (human ether-à-go-go-related gene ion channel) (Homo sapiens, UniProt Q12809); assay: cell-based; parameters: hERG channel inhibition counterscreen; conditions: read-out: hERG pIC50 (converted)
T6 construct: gene KCNH2
Text: There is increasing awareness of the importance for drug candidates of inhibition of hERG (the human ether-à-go-go-related gene ion channel), which is sensitive to blockade by many drug-like structures. Such blockage has led to a number of prominent postmarketing withdrawals.[103] Regulators are sensitive to any hERG activity, and a hERG counterscreen is often now run early in hit characterization and series prioritization.

in vitro [13] = assay: in vitro; parameters: stability in mouse plasma; conditions: plasma; mouse plasma; read-out: t1/2 plasma Mouse
Protocol: (§4) Representative compounds from both subseries were evaluated in an oral in vivo mouse trial (Data Set S22). The original starting points OSM-S-5 and -6 (Figure 2) were chosen along with NN representative OSM-S-35 (Figure 4). […] It is plausible that at least some of the arylpyrrole ester compounds would be degraded by general hydrolysis during absorption, and this could explain their inactivity in the mouse model despite their more favorable (although still high) cLogP values. […] Esterase activity is higher in rodents than in other species,[102] as confirmed by using p-nitrophenol acetate as a control compound in this assay.

[14] = test system: Plasmodium falciparum Pfal (strain not named in column head); assay: microbe, parasite or virus in culture; parameters: species or system P. falciparum blood stage culture; whole-cell asexual blood stage P. falciparum growth inhibition
Protocol: as §1

in vitro [15] = assay: in vitro; parameters: plasma stability, half-life and per cent remaining; conditions: plasma; plasma Mouse; read-out: t1/2 plasma Mouse
Protocol: as §4

HEK293 = assay: cells; parameters: cytotoxicity counter-screen on HEK293 cells; conditions: Homo sapiens, cytotoxicity
Protocol: as §1

in vitro [16] = assay: in vitro; parameters: microsomal stability with NADPH, LC-MS, half-life and CLint; conditions: human, liver microsomes, HLM
Protocol: (§5) The two original GSK hits (OSM-S-5 and -6) and six NN compounds were evaluated for their kinetic solubility in phosphate buffer and their metabolic stability in human liver microsomes (Table SB5, Data Sets S20 and S21).

[17] = test system: Plasmodium berghei Pb Liver Stage; assay: microbe, parasite or virus in culture; parameters: P. berghei sporozoite liver stage development inhibition, IC50; conditions: HepG2
Text: as §2

[18] = test system: Plasmodium berghei Pb Liver Stage; assay: microbe, parasite or virus in culture; parameters: liver stage assay, sporozoites in liver cells; conditions: HepG2
Text: as §2

in vitro [19] = assay: in vitro; parameters: metabolic stability in human liver microsomes, LC-MS, NADPH, 0.4 mg/mL protein; conditions: liver microsomes, human liver microsomes
Protocol: as §5

in vitro [20] = assay: in vitro; parameters: metabolic stability in mouse liver microsomes, LC-MS, NADPH, 0.4 mg/mL protein; conditions: liver microsomes, mouse liver microsomes
Protocol: as §5

[21] = Avery assay, read-out: K1 / IC50nM

T6 sequence (Q12809 whole entry): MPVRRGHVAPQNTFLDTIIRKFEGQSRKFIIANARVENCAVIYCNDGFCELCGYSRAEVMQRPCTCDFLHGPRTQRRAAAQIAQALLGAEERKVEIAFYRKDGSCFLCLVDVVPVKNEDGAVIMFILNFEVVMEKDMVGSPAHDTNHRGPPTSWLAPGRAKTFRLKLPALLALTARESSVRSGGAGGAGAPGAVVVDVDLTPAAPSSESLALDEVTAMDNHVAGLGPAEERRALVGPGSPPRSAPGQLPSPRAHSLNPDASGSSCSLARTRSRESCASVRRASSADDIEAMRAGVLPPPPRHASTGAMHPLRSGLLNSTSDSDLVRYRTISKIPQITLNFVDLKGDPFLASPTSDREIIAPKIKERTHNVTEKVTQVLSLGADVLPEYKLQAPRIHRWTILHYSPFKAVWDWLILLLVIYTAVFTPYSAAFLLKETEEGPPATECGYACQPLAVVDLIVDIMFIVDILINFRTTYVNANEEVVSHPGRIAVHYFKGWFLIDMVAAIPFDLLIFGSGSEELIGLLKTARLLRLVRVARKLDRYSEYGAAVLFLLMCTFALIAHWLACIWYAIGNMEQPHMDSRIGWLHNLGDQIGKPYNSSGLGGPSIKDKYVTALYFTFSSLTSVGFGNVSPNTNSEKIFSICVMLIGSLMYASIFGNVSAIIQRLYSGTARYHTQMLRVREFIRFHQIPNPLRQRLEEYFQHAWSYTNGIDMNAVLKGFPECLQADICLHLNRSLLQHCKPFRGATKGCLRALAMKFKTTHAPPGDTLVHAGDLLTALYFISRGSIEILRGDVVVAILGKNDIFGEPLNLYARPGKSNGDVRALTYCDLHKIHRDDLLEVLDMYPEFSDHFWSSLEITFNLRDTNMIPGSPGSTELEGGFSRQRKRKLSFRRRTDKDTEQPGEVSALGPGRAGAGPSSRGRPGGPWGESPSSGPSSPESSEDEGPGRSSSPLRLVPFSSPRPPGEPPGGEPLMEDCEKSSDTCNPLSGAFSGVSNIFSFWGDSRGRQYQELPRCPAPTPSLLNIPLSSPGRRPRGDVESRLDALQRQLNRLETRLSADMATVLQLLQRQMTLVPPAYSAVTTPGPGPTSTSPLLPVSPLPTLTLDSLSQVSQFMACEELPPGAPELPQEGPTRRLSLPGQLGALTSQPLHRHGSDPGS

COc1ccc2nc3cc(Cl)ccc3c(Nc3cc(CN4CCCC4)c(O)c(CN4CCCC4)c3)c2n1 [Pyronaridine]
IC50 [1]: 15.2 nM | IC50 [2, 21]: 21.3 nM | CC50 (in vitro [3]): 7700 nM

Cc1cc(/C=C2\S/C(=N\c3ccccc3)NC2=O)c(C)n1-c1ccc(C(F)(F)F)cc1 [OSM-S-38]
IC50 [4]: 4 nM | CC50 (in vitro [5]): > 50000 nM | inhibition at 1 µM ([6]; female gametocytes): 20.5% | inhibition at 1 µM ([6]; male gametocytes): 26.5% | IC50 (PfDHODH [7]): > 50000 nM

CC(=O)N(C1=NC(=O)/C(=C/c2cc(C)n(-c3ccc(F)cc3)c2C)S1)c1ccccc1 [OSM-S-9]
IC50 [4]: 28 nM | IC50 (PfDHODH [7]): > 50000 nM

COc1ccc(-n2ccnc2SCC(=O)Nc2cc(C(F)(F)F)ccc2Cl)c(OC)c1 [TCMDC-123822]
IC50 (PfDHODH [8]): 48.2 nM

Cc1cc(/C=C2\SC(=Nc3ccccc3)N(CC#N)C2=O)c(C)n1-c1ccc(C(F)(F)F)cc1 [OSM-S-42]
IC50 (PfDHODH [9]): > 50000 nM

Cc1cc(C(=O)OCC(N)=O)c(C)n1-c1ccc(F)cc1 [OSM-S-5]
IC50 ([10]; read-out: Pfal (K1) IC50 (Batra)): 641 nM | IC50 ([11]; read-out: Pfal IC50 (Batra)): 581 nM | IC50 [12]: > 31600 nM | half-life (in vitro [13]): 1.9 h | inhibition at 1 µM ([6]; female gametocytes): 13.5% | inhibition at 1 µM ([6]; male gametocytes): 5.1% | IC50 ([14]; Batra assay): 581 nM | IC50 ([2]; Batra assay, read-out: Pfal (K1) IC50 (Batra)): 641 nM | half-life (in vitro [15]): 1.9 h | IC50 (PfDHODH [7]): > 50000 nM

CN(Cc1cnc2nc(N)nc(N)c2n1)c1ccc(C(=O)N[C@@H](CCC(=O)O)C(=O)O)cc1 [Methotrexate]
IC50 [1]: 25.8 nM | IC50 [2, 21]: 25 nM | CC50 (in vitro [3]): 11.8 nM

Cc1cc(/C=C2\S/C(=N\c3ccccc3)NC2=O)c(C)n1-c1cc(C(F)(F)F)cc(C(F)(F)F)c1 [OSM-S-39]
IC50 [4]: 2.6 nM | inhibition at 1 µM ([6]; female gametocytes): 31.3% | inhibition at 1 µM ([6]; male gametocytes): 36.1% | IC50 (PfDHODH [7]): > 50000 nM

CCc1nc(N)nc(N)c1-c1ccc(Cl)cc1 [Pyrimethamine]
IC50 [1]: 11 nM | IC50 [2, 21]: 11900 nM | CC50 (in vitro [3]): 13900 nM

CC(C)=CCC1=C(O)C(=O)c2ccccc2C1=O [Lapachol]
IC50 (PfDHODH [8]): > 100000 nM

Cc1cc(/C=C2\SC(=Nc3ccccc3)N(c3ccccc3)C2=O)c(C)n1-c1ccc(C(F)(F)F)cc1 [OSM-S-52]
IC50 (PfDHODH [9]): > 50000 nM

COc1ccc(-n2c(C)cc(/C=C3\SC(=Nc4ccccc4)NC3=O)c2C)cc1 [OSM-S-111]
IC50 ([10]; read-out: Pfal (K1) IC50 (Guy)): 204 nM | IC50 ([11]; read-out: Pfal IC50 (Guy)): 147 nM | inhibition at 40 µM (HEK293): 32% | IC50 [4]: 686 nM | CC50 (in vitro [5]): 4390 nM | inhibition at 1 µM ([6]; male gametocytes): 21.1% | microsomal CLint (in vitro [16]; read-out: CLint HLM (Monash)): 8 µL/min/mg | half-life (in vitro [16]; read-out: t1/2 HLM (Monash)): 3.45 h | IC50 [17]: 345 nM | IC50 ([14]; Guy assay): 147 nM | IC50 ([2]; Guy assay, read-out: Pfal (K1) IC50 (Guy)): 204 nM | IC50 [18]: 345 nM | microsomal CLint (in vitro [19]; read-out: CLint HLM (Monash)): 8 µL/min/mg | half-life (in vitro [19]; read-out: t1/2 HLM (Monash)): 3.45 h | microsomal CLint (in vitro [20]; read-out: 0.4 / CLint, in vitro / (mL/min/mg protein)): 0.0371 mL/min/mg | half-life (in vitro [20]; read-out: Protein Conc. (mg/mL): / Degradation half-life /): 0.777 h

Cc1cc(/C=C2\SC(=Nc3ccccc3)N(C3CCCC3)C2=O)c(C)n1-c1ccc(C(F)(F)F)cc1 [OSM-S-54]
IC50 (PfDHODH [9]): > 50000 nM

Cc1cc(/C=C2\SC(=Nc3ccccc3)NC2=O)c(C)n1-c1ccccc1 [OSM-S-35]
IC50 [12]: > 31600 nM | inhibition at 40 µM (HEK293): 57% | IC50 (PfDHODH [7]): > 50000 nM
